Laboratory results taken from the NIST ThermoML archive (doi:10.1021/je700260f).
Numbers after ± are expanded uncertainties.

Settings: 333.16 K, Liquid, Vibrating tube method

FC(C(F)(F)F)C(F)(F)F [1,1,1,2,3,3,3-heptafluoropropane]
Settings	mass density [kg/m3]
17241 kPa	1375.9 ± 1.6
17263 kPa	1376.1 ± 1.6
17300 kPa	1376.3 ± 1.6
17322 kPa	1376.4 ± 1.6
17351 kPa	1376.5 ± 1.6
17370 kPa	1376.8 ± 1.6
17482 kPa	1377.4 ± 1.6
17509 kPa	1377.4 ± 1.6
17532 kPa	1377.7 ± 1.6
17563 kPa	1377.9 ± 1.6
17589 kPa	1378 ± 1.6
17619 kPa	1378.1 ± 1.6
17654 kPa	1378.4 ± 1.6
17680 kPa	1378.6 ± 1.6
17707 kPa	1378.7 ± 1.6
17741 kPa	1378.9 ± 1.6
17766 kPa	1379.1 ± 1.6
17788 kPa	1379.2 ± 1.6
17814 kPa	1379.3 ± 1.6
17848 kPa	1379.5 ± 1.6
17875 kPa	1379.6 ± 1.6
18144 kPa	1381.2 ± 1.6
18172 kPa	1381.4 ± 1.6
18199 kPa	1381.6 ± 1.6
18229 kPa	1381.8 ± 1.6
18263 kPa	1382 ± 1.6
18289 kPa	1382 ± 1.6
18321 kPa	1382.2 ± 1.6
18352 kPa	1382.4 ± 1.6
18378 kPa	1382.7 ± 1.6
18409 kPa	1382.9 ± 1.6
18440 kPa	1382.9 ± 1.6
18582 kPa	1383.6 ± 1.6
18605 kPa	1383.8 ± 1.6
18633 kPa	1384.2 ± 1.6
18653 kPa	1384.2 ± 1.6
18684 kPa	1384.3 ± 1.6
18715 kPa	1384.6 ± 1.6
18741 kPa	1384.6 ± 1.6
18777 kPa	1384.9 ± 1.6
18809 kPa	1385.1 ± 1.6
18836 kPa	1385.3 ± 1.6
18859 kPa	1385.4 ± 1.6
18889 kPa	1385.6 ± 1.6
18924 kPa	1385.8 ± 1.6
18951 kPa	1385.8 ± 1.6
18974 kPa	1385.9 ± 1.6
19009 kPa	1386.3 ± 1.6
19047 kPa	1386.4 ± 1.6
19071 kPa	1386.6 ± 1.6
19105 kPa	1386.7 ± 1.6
19128 kPa	1386.7 ± 1.6
19166 kPa	1387 ± 1.6
19192 kPa	1387.1 ± 1.6
19220 kPa	1387.4 ± 1.6
19248 kPa	1387.5 ± 1.6
19286 kPa	1387.9 ± 1.6
19310 kPa	1387.8 ± 1.6
19346 kPa	1388 ± 1.6
19381 kPa	1388.3 ± 1.6
19409 kPa	1388.4 ± 1.6
19445 kPa	1388.6 ± 1.6
19468 kPa	1388.8 ± 1.6
19716 kPa	1390.1 ± 1.6
19745 kPa	1390.3 ± 1.6
19776 kPa	1390.5 ± 1.6
19803 kPa	1390.5 ± 1.6
19831 kPa	1390.7 ± 1.6
19870 kPa	1391 ± 1.6
19894 kPa	1391 ± 1.6
19927 kPa	1391.2 ± 1.6
19959 kPa	1391.4 ± 1.6
19987 kPa	1391.6 ± 1.6
20022 kPa	1391.8 ± 1.6
20050 kPa	1391.9 ± 1.6
20077 kPa	1392 ± 1.6
20115 kPa	1392.3 ± 1.6
20146 kPa	1392.4 ± 1.6
20174 kPa	1392.5 ± 1.6
20207 kPa	1392.8 ± 1.6
20238 kPa	1392.9 ± 1.6
20266 kPa	1393.1 ± 1.6
20294 kPa	1393.3 ± 1.6
20328 kPa	1393.5 ± 1.6
20352 kPa	1393.5 ± 1.6
20393 kPa	1393.9 ± 1.6
20421 kPa	1393.8 ± 1.6
20453 kPa	1394.1 ± 1.6
20487 kPa	1394.3 ± 1.6
20512 kPa	1394.4 ± 1.6
20545 kPa	1394.6 ± 1.6
20579 kPa	1394.8 ± 1.6
20612 kPa	1395 ± 1.6
20640 kPa	1395.1 ± 1.6
20661 kPa	1395.4 ± 1.6
20682 kPa	1395.2 ± 1.6
20713 kPa	1395.4 ± 1.6
21425 kPa	1399.3 ± 1.6
21458 kPa	1399.4 ± 1.6
21479 kPa	1399.5 ± 1.6
21507 kPa	1399.6 ± 1.6
21537 kPa	1399.9 ± 1.6
21562 kPa	1399.9 ± 1.6
